# Results published in patent US10722501B2 (BAYER AKTIENGESELLSCHAFT, priority 2016, dated 2020).
# pIC50: −log10 of the molar value.
# Molecular target: T1, recombinant full-length human prolyl endopeptidase (PREP) (Homo sapiens, UniProt P48147)
# T1 construct: To recombinant full-length human prolyl endopeptidase (PREP, R&D-Systems, 4308-SE); purchased R&D-Systems 4308-SE
# T1 sequence (P48147 1-710): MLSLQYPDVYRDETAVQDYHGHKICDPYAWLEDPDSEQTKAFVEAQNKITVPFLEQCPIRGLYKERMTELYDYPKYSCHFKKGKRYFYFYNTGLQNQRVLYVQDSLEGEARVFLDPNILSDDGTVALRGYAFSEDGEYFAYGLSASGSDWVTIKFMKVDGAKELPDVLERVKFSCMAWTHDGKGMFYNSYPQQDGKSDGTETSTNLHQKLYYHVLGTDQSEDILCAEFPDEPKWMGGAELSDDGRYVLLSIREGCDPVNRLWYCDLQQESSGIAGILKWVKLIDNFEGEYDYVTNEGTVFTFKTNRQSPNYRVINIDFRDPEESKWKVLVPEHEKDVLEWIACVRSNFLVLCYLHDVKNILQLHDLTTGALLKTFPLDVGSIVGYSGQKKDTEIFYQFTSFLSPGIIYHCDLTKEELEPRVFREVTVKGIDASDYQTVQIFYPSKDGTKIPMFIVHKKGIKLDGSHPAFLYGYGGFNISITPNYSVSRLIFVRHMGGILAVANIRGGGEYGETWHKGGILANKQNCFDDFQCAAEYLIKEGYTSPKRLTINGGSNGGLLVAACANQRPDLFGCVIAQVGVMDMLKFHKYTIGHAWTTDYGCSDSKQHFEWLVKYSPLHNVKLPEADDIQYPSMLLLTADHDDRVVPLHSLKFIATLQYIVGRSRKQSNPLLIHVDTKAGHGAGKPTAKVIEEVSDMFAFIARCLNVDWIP
# Experiment: Biochemical human prolyl endopeptidase (PREP) assay with fluorescently labelled substrate
# Conditions: substrate Z-Gly-Pro-AMC 50 μM, 32° C., 60 min; some as mean values from multiple independent determinations
# Method in brief: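 0.4 nM (final, example) recombinant PREP in pH 7.5 Tris buffer with EDTA, GSH, BSA and Brij-35; compounds at 1 nM to 30 μM. Reaction started with 50 μM Z-Gly-Pro-AMC and followed by fluorescence (ex 360/em 465 nm) at 32° C for 60 min. IC50 interpolated from percent activity based on initial slopes.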
row,pIC50,Structure (SMILES)
1,7.90,"Cc1ccc(Cn2nc3n(c2=O)[C@H](C(=O)N2CC(F)(F)C(F)(F)C2)CCC3)cc1 [Example 145, (5S)-2-(4-Methylbenzyl)-5-[(3,3,4,4-tetrafluoropyrrolidin-1-yl)carbonyl]-5,6,7,8-tetrahydro[1,2,4]triazolo[4,3-a]pyridin-3(2H)-one]"
2,9.21,"O=C(C1CC(C(F)(F)F)Cc2nn(Cc3ccc(Cl)nc3)c(=O)n21)N1CC[C@H](F)C1 (single isomer, unassigned) [Example 243]"
3,8.37,"CC1CCC(C(=O)N2CC(F)C2)n2c1nn(Cc1ccc(F)cc1F)c2=O (racemic) [Example 329, (5RS,8RS)-2-(2,4-Difluorobenzyl)-5-[(3-fluoroazetidin-1-yl)carbonyl]-8-methyl-5,6,7,8-tetrahydro[1,2,4]triazolo[4,3-a]pyridin-3(2H)-one]"
4,7.43,"O=C(C1CCc2nn(Cc3ccnc(C(F)(F)F)c3F)c(=O)n21)N1CC(F)C1 (racemic) [Example 182, (5RS)-5-[(3-Fluoroazetidin-1-yl)carbonyl]-2-{[3-fluoro-2-(trifluoromethyl)pyridin-4-yl]methyl}-2,5,6,7-tetrahydro-3H-pyrrolo[2,1-c][1,2,4]triazol-3-one]"
5,8.85,"O=C([C@@H]1CCCc2nn(Cc3ccc(Cl)cn3)c(=O)n21)N1CCSC1 [Example 505, (5S)-2-[(5-Chloropyridin-2-yl)methyl]-5-(1,3-thiazolidin-3-ylcarbonyl)-5,6,7,8-tetrahydro[1,2,4]triazolo[4,3-a]pyridin-3(2H)-one]"
6,9.49,"O=C([C@@H]1CCCc2nn(CC3(c4ccc(F)cc4)CC3)c(=O)n21)N1CC[C@H](F)C1 [Example 352, (5S)-2-{[1-(4-Fluorophenyl)cyclopropyl]methyl}-5-{[(3S)-3-fluoropyrrolidin-1-yl]carbonyl}-5,6,7,8-tetrahydro[1,2,4]triazolo[4,3-a]pyridin-3(2H)-one]"
7,8.63,"O=C([C@@H]1CCCc2nn(Cc3ncc(C(F)(F)F)cc3Cl)c(=O)n21)N1CCC(F)(F)C1 [Example 404, (5S)-2-{[3-Chloro-5-(trifluoromethyl)pyridin-2-yl]methyl}-5-[(3,3-difluoropyrrolidin-1-yl)carbonyl]-5,6,7,8-tetrahydro[1,2,4]triazolo[4,3-a]pyridin-3(2H)-one]"
8,8.98,"CC1Cc2nn(Cc3ccnc(C(F)(F)F)c3F)c(=O)n2C(C(=O)N2CC(F)C2)C1 (racemic) [Example 335, (5RS,7RS)-5-[(3-Fluoroazetidin-1-yl)carbonyl]-2-{[3-fluoro-2-(trifluoromethyl)pyridin-4-yl]methyl}-7-methyl-5,6,7,8-tetrahydro[1,2,4]triazolo[4,3-a]pyridin-3(2H)-one]"
9,8.44,"O=C([C@@H]1CC=Cc2nn(Cc3ccc(C(F)(F)F)nc3)c(=O)n21)N1CC[C@H](F)C1 [Example 276, (5S)-5-{[(3S)-3-Fluoropyrrolidin-1-yl]carbonyl}-2-{[6-(trifluoromethyl)pyridin-3-yl]methyl}-5,6-dihydro[1,2,4]triazolo[4,3-a]pyridin-3(2H)-one]"
10,9.03,"CC1CCC(C(=O)N2CC(F)C2)n2c1nn(Cc1ccc(F)c(Cl)c1)c2=O (racemic) [Example 321, (5RS,8RS)-2-(3-Chloro-4-fluorobenzyl)-5-[(3-fluoroazetidin-1-yl)carbonyl]-8-methyl-5,6,7,8-tetrahydro[1,2,4]triazolo[4,3-a]pyridin-3(2H)-one]"
11,9.42,"O=C([C@@H]1CCCc2nn(Cc3cc(C(F)(F)F)nc4ccccc34)c(=O)n21)N1CCCC1 [Example 76, (5S)-5-(Pyrrolidin-1-ylcarbonyl)-2-{[2-(trifluoromethyl)quinolin-4-yl]methyl}-5,6,7,8-tetrahydro[1,2,4]triazolo[4,3-a]pyridin-3(2H)-one]"
12,8.96,"O=C([C@@H]1CCCc2nn(CC3(c4ccc(F)cc4F)CC3)c(=O)n21)N1CCC(F)(F)C1 [Example 359, (5S)-2-{[1-(2,4-Difluorophenyl)cyclopropyl]methyl}-5-[(3,3-difluoropyrrolidin-1-yl)carbonyl]-5,6,7,8-tetrahydro[1,2,4]triazolo[4,3-a]pyridin-3(2H)-one]"
13,9.00,"CC1Cc2nn(Cc3ccc(C(F)(F)F)nc3)c(=O)n2C(C(=O)N2CC[C@H](F)C2)C1 (single isomer, unassigned) [Example 138]"
14,8.85,"O=C(C1CC(C(F)(F)F)Cc2nn(Cc3ccc(C(F)(F)F)nc3)c(=O)n21)N1CC[C@H](F)C1 (mixture of isomers) [Example 236, (5RS,7RS)-5-{[(3S)-3-Fluoropyrrolidin-1-yl]carbonyl}-7-(trifluoromethyl)-2-{[6-(trifluoromethyl)pyridin-3-yl]methyl}-5,6,7,8-tetrahydro[1,2,4]triazolo[4,3-a]pyridin-3(2H)-one]"
15,8.74,"O=C([C@@H]1CCCc2nn(Cc3ccc(Br)cn3)c(=O)n21)N1C[C@@H](F)[C@@H](F)C1 [Example 504, (5S)-2-[(5-Bromopyridin-2-yl)methyl]-5-{[(3R,4S)-3,4-difluoropyrrolidin-1-yl]carbonyl}-5,6,7,8-tetrahydro[1,2,4]triazolo[4,3-a]pyridin-3(2H)-one]"
16,9.28,"O=C([C@@H]1CCCc2nn(CCc3ccc(F)cc3)c(=O)n21)N1C[C@@H](F)[C@@H](F)C1 [Example 344, (5S)-5-{[(3R,4S)-3,4-Difluoropyrrolidin-1-yl]carbonyl}-2-[2-(4-fluorophenyl)ethyl]-5,6,7,8-tetrahydro[1,2,4]triazolo[4,3-a]pyridin-3(2H)-one]"
17,6.35,"O=C(C1CCc2nn(Cc3ccnc(C(F)(F)F)c3F)c(=O)n21)N1C[C@@H](F)[C@@H](F)C1 (single isomer, unassigned) [Example 176]"
18,9.04,"O=C([C@@H]1CCCc2nn(Cc3ccc(Cl)cn3)c(=O)n21)N1CC[C@H](F)C1 [Example 508, (5S)-2-[(5-Chloropyridin-2-yl)methyl]-5-{[(3S)-3-fluoropyrrolidin-1-yl]carbonyl}-5,6,7,8-tetrahydro[1,2,4]triazolo[4,3-a]pyridin-3(2H)-one]"
19,8.68,"O=C(C1CCCc2nn(Cc3cc(C(F)(F)F)c(Cl)cn3)c(=O)n21)N1CCCC1 (single isomer, unassigned) [Example 107]"
20,8.66,"CC(c1ccc(Cl)cc1)n1nc2n(c1=O)C(C(=O)N1CCCC1)CCC2 (single isomer, unassigned) [Example 4, (5RS)-2-[(1 RS)-1-(4-Chlorophenyl)ethyl]-5-(pyrrolidin-1-ylcarbonyl)-5,6,7,8-tetrahydro[1,2,4]triazolo[4,3-a]pyridin-3(2H)-one]"
21,9.40,"Cc1ccc(Cn2nc3n(c2=O)[C@H](C(=O)N2CCC[C@H]2C=O)CCC3)cc1 [Example 196, (2S)-1-{[(5S)-2-(4-Methylbenzyl)-3-oxo-2,3,5,6,7,8-hexahydro[1,2,4]triazolo[4,3-a]pyridin-5-yl]carbonyl}pyrrolidine-2-carbaldehyde]"
22,9.24,"O=C(C1CCCc2nn(Cc3ccc(F)c(Cl)c3)c(=O)n21)N1CCCC1 (racemic) [Example 18, (5RS)-2-(3-Chloro-4-fluorobenzyl)-5-(pyrrolidin-1-ylcarbonyl)-5,6,7,8-tetrahydro[1,2,4]triazolo[4,3-a]pyridin-3(2H)-one]"
23,7.62,"O=C(C1C(C(F)(F)F)CCc2nn(Cc3ccc(Cl)cn3)c(=O)n21)N1CC[C@H](F)C1 (mixture of isomers) [Example 298, (5RS,6RS)-2-[(5-Chloropyridin-2-yl)methyl]-5-{[(3S)-3-fluoropyrrolidin-1-yl]carbonyl}-6-(trifluoromethyl)-5,6,7,8-tetrahydro[1,2,4]triazolo[4,3-a]pyridin-3(2H)-one]"
24,9.49,"Cc1ccc(Cn2nc3n(c2=O)[C@H](C(=O)N2CC(C)C2)CCC3)cc1 [Example 192, (5S)-5-[(3-Methylazetidin-1-yl)carbonyl]-2-(4-methylbenzyl)-5,6,7,8-tetrahydro[1,2,4]triazolo[4,3-a]pyridin-3(2H)-one]"
25,6.63,"O=C([C@@H]1CCCc2nn(Cc3ccc(Cl)nc3)c(=O)n21)N1CCC2CC21 (single isomer, unassigned) [Example 197]"
26,7.55,"O=C([C@@H]1CCCc2nn(Cc3ncccc3Cl)c(=O)n21)N1CC(F)(F)C1 [Example 394, (5S)-2-[(3-Chloropyridin-2-yl)methyl]-5-[(3,3-difluoroazetidin-1-yl)carbonyl]-5,6,7,8-tetrahydro[1,2,4]triazolo[4,3-a]pyridin-3(2H)-one]"
27,8.16,"O=C([C@@H]1CCCc2nn(Cc3ccc(C(F)(F)F)nc3)c(=O)n21)N1CCC(F)(F)C1 [Example 426, (5S)-5-[(3,3-Difluoropyrrolidin-1-yl)carbonyl]-2-{[6-(trifluoromethyl)pyridin-3-yl]methyl}-5,6,7,8-tetrahydro[1,2,4]triazolo[4,3-a]pyridin-3(2H)-one]"
